This note sets out measurements from patent publication US20230135894A1, “MK2 DEGRADERS AND USES THEREOF” (Kymera Therapeutics, Inc., priority 2021, published 2023).

Bounds are passed on as bounds.

For assay [1], the target named is T1, MK2 (Homo sapiens, UniProt P49137). The assay can be described thus: MK2 degradation in human SW1353 cells (MSD, 24 h). In kind it is cell-based. On the set-up: endogenous in cells; host or cells: SW-1353 (ATCC HTB-94). The settings on record: for Dmax: read-out: MK2 MSD SW 1353 24 h Dmax %; for DC50: read-out: MK2 MSD SW1353 degradation 24 h GMean External Abs DC50. A digest of the protocol: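 SW1353 chondrosarcoma cells were treated with up to 10-point serial dilutions (0.1% DMSO) for 24 h at 37 °C, then lysed in RIPA buffer. MK2 levels were quantified by MSD sandwich immunoassay; DC50 came from a 4-parameter logistic fit normalised to DMSO-treated cells (high) and lysis buffer (low).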

In assay [2] the target is T1, MK2. The assay can be described thus: MK2 degradation in human THP-1 monocytic cells (MSD, 24 h). On the set-up: endogenous in cells; key to MK2 MSD THP-1 degradation 24 h GMean External Abs DC50: A (<0.001 μM); B (0.001-0.01 μM); C (0.01-0.1 μM); D (>0.1 μM); —: “-”=not tested or inactive. In kind it is cell-based. The following applies: for Dmax: THP-1, THP-1 cells; for DC50: read-out: MK2 MSD THP-1 degradation 24 h GMean External Abs DC50. A digest of the protocol:
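THP-1 cells (200,000/well) treated 24 h at 37 °C with compound dilution series (up to 10 points, 0.1% DMSO). MK2 in RIPA lysates quantified by MSD sandwich immunoassay. DC50 from 4-parameter logistic fit, DMSO-treated cells as high and lysis buffer as low signal.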

T1 sequence (P49137 whole entry): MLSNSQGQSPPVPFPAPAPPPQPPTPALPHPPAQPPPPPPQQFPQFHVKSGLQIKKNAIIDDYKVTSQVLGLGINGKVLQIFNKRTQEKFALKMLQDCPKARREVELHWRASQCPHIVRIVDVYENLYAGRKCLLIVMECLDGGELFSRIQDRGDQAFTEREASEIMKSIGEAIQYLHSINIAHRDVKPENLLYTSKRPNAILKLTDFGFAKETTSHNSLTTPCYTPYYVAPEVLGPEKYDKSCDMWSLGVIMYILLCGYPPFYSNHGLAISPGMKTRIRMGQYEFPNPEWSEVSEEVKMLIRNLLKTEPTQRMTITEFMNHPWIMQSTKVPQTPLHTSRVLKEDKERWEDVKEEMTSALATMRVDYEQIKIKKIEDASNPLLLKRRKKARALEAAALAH

By Dmax is commonly meant the largest share of the target that was removed. In general, DC50 refers to the concentration at which degradation of the target reaches its halfway point. As for `Cn1c(=O)n(C2CCC(=O)NC2=O)c2ccc(N3CCC(CN4CCN(c5ccc(-c6cc(-c7cc8c([nH]7)CCNC8=O)ccn6)c(F)c5)CC4)CC3)cc21` (centres unmarked) [Compound I-226], the Dmax at MK2 [1] and on MK2 [2] was above 75% each time. Also, the DC50 on MK2 [1] and on MK2 [2] (THP-1 cells) was below 1 nM throughout.
Turning to `Cc1cc(N2CCN(CC3CCN(c4ccc5c(c4)n(C)c(=O)n5C4CCC(=O)NC4=O)CC3)CC2)ccc1-c1cc(-c2cc3c([nH]2)CCNC3=O)ccn1` (centres unmarked) [Compound I-229], the Dmax on MK2 [1] and on MK2 [2] was below 50% each time. The half-maximal degradation concentration (DC50) at MK2 [1] and on MK2 [2] (THP-1 cells) was above 100 nM each time.
With `CC(C)Oc1cc(-c2ccc3c(ccc4sc5c(c43)NC[C@@H](C)NC5=O)n2)cc(N2CCN(CC3CCN(c4ccc5c(c4)n(C)c(=O)n5C4CCC(=O)NC4=O)CC3)CC2)c1` (some centres unmarked) [Compound I-230], the Dmax at MK2 [1] and at MK2 [2] was above 75% throughout. Also, the DC50 at MK2 [1] and at MK2 [2] (THP-1 cells) was below 1 nM throughout.
Consider `CC(C)c1cc(-c2ccc3c(ccc4sc5c(c43)NC[C@@H](C)NC5=O)n2)cc(N2CCN(CC3CCN(c4ccc5c(c4)n(C)c(=O)n5C4CCC(=O)NC4=O)CC3)CC2)c1` (some centres unmarked) [Compound I-231], for which the Dmax on MK2 [1] and at MK2 [2] was above 75% each time. For the same molecule, the DC50 at MK2 [1] and on MK2 [2] (THP-1 cells) was 1 to 10 nM each time.
As to `C[C@@H]1CNc2c(sc3ccc4nc(-c5ccc([C@H]6CC[C@H](CN7CCN(c8ccc9c(c8)n(C)c(=O)n9C8CCC(=O)NC8=O)CC7)CC6)nc5)ccc4c23)C(=O)N1` (some centres unmarked) [Compound I-232], the Dmax at MK2 [1] and on MK2 [2] was above 75% in each case. For the same molecule, the half-maximal degradation concentration (DC50) at MK2 [1] and at MK2 [2] (THP-1 cells) was below 1 nM in each case.
As to `CCc1cc(-c2ccc3c(ccc4sc5c(c43)NC[C@@H](C)NC5=O)n2)cc(N2CCN(CC3CCN(c4ccc5c(c4)n(C)c(=O)n5C4CCC(=O)NC4=O)CC3)CC2)c1` (some centres unmarked) [Compound I-233], the Dmax on MK2 [1] and at MK2 [2] was above 75% in each case. In addition, the DC50 on MK2 [1] and at MK2 [2] (THP-1 cells) was 1 to 10 nM each time.
For the molecule `Cc1nc(N2CCN(CC3CN(c4ccc5c(c4)n(C)c(=O)n5C4CCC(=O)NC4=O)C3)CC2)ccc1-c1ccc2c(ccc3sc4c(c32)NC[C@@H](C)NC4=O)n1` (some centres unmarked) [Compound I-234], the Dmax at MK2 [1] and at MK2 [2] was above 75% each time. Moreover, the DC50 on MK2 [1] and on MK2 [2] (THP-1 cells) was below 1 nM each time.
`C[C@@H]1CNc2c(sc3ccc4nc(-c5ccc(N6CCN(CC7CN(c8ccc9c(c8)n(C)c(=O)n9C8CCC(=O)NC8=O)C7)CC6)cc5Cl)ccc4c23)C(=O)N1` (some centres unmarked) [Compound I-235]: the Dmax on MK2 [1] and at MK2 [2] was above 75% each time. Further, the DC50 at MK2 [1] and on MK2 [2] (THP-1 cells) was below 1 nM in each case.
With `Cc1cc(N2CCN(CC3CN(c4ccc5c(c4)n(C)c(=O)n5C4CCC(=O)NC4=O)C3)CC2)ccc1-c1ccc2c(ccc3sc4c(c32)NC[C@@H](C)NC4=O)n1` (some centres unmarked) [Compound I-236], the greatest degradation seen (Dmax) on MK2 [1] and at MK2 [2] was above 75% in each case. In addition, the half-maximal degradation concentration (DC50) on MK2 [1] and on MK2 [2] (THP-1 cells) was below 1 nM throughout.
`C[C@@H]1CNc2c(sc3ccc4nc(-c5ccc(N6CCN(CC7CN(c8ccc9c(c8)n(C)c(=O)n9C8CCC(=O)NC8=O)C7)CC6)cc5F)ccc4c23)C(=O)N1` (some centres unmarked) [Compound I-237]: the Dmax on MK2 [1] and on MK2 [2] was above 75% in each case. Further, the half-maximal degradation concentration (DC50) at MK2 [1] and on MK2 [2] (THP-1 cells) was below 1 nM each time.
As to `COc1cc(-c2ccc3c(ccc4sc5c(c43)NC[C@@H](C)NC5=O)n2)cc(N2CCN(CC3CCN(c4ccc5c(c4)n(C)c(=O)n5C4CCC(=O)NC4=O)CC3)CC2)c1` (some centres unmarked) [Compound I-239], the Dmax on MK2 [1] and on MK2 [2] was above 75% each time. The DC50 at MK2 [1] and on MK2 [2] (THP-1 cells) was below 1 nM in each case.
As for `C[C@@H]1CNc2c(sc3ccc4nc(-c5cc(C#N)cc(N6CCN(CC7CCN(c8ccc9c(c8)n(C)c(=O)n9C8CCC(=O)NC8=O)CC7)CC6)c5)ccc4c23)C(=O)N1` (some centres unmarked) [Compound I-240], the maximal degradation (Dmax) on MK2 [1] and on MK2 [2] was above 75% each time. The DC50 at MK2 [1] and on MK2 [2] (THP-1 cells) was below 1 nM each time.
Consider `Cn1c(=O)n(C2CCC(=O)NC2=O)c2cccc(CCCN3CCN(c4ccc(-c5cc(-c6cc7c([nH]6)C6(CC6)CNC7=O)ccn5)cc4)CC3)c21` (centres unmarked) [Compound I-241], for which the results for the maximal degradation (Dmax) on MK2 [1] and on MK2 [2] were above 75% and 50 to 75%, respectively. For the same molecule, the DC50 at MK2 [1] and on MK2 [2] (THP-1 cells) was 1 to 10 nM each time.
As for `Cn1c(=O)n(C2CCC(=O)NC2=O)c2ccc(CCCN3CCN(c4ccc(-c5cc(-c6cc7c([nH]6)C6(CC6)CNC7=O)ccn5)cc4)CC3)cc21` (centres unmarked) [Compound I-242], the Dmax was above 75% on MK2 [1] and 50 to 75% on MK2 [2]. The half-maximal degradation concentration (DC50) was 1 to 10 nM on MK2 [1] and 10 to 100 nM at MK2 [2] (THP-1 cells).
With `Cn1c(=O)n(C2CCC(=O)NC2=O)c2ccc(N3CCC(CN4CCN(c5ccc(-c6cc(-c7cc8c([nH]7)C7(CC7)CNC8=O)ccn6)cn5)CC4)CC3)cc21` (centres unmarked) [Compound I-243], the figures for the Dmax on MK2 [1] and on MK2 [2] were above 75% and 50 to 75%, respectively. Further, the half-maximal degradation concentration (DC50) on MK2 [1] and on MK2 [2] (THP-1 cells) was below 1 nM in each case.
Take `Cn1c(=O)n(C2CCC(=O)NC2=O)c2ccc(N3CCC(CN4CCN(c5ccc(-c6cc(-c7cc8c([nH]7)C7(CC7)CNC8=O)ccn6)cc5)CC4)CC3)cc21` (centres unmarked) [Compound I-244]: the Dmax on MK2 [1] and on MK2 [2] was above 75% in each case. For the same molecule, the DC50 on MK2 [1] and on MK2 [2] (THP-1 cells) was below 1 nM each time.
For `C[C@@H]1CNc2c(sc3ccc4nc(-c5ccc(N6CCN(CC7CN(c8cccc9c8n(C)c(=O)n9C8CCC(=O)NC8=O)C7)CC6)nc5)ccc4c23)C(=O)N1` (some centres unmarked) [Compound I-245], the Dmax at MK2 [1] and at MK2 [2] was above 75% in each case. Further, the DC50 at MK2 [1] and at MK2 [2] (THP-1 cells) was below 1 nM throughout.
`C[C@@H]1CNc2c(sc3ccc4nc(-c5ccc(N6CCN(C7CC(c8cccc9c8n(C)c(=O)n9C8CCC(=O)NC8=O)C7)CC6)cc5)ccc4c23)C(=O)N1` (some centres unmarked) [Compound I-246]: the Dmax on MK2 [1] and on MK2 [2] was above 75% throughout. Moreover, the half-maximal degradation concentration (DC50) on MK2 [1] and at MK2 [2] (THP-1 cells) was below 1 nM each time.
Turning to `C[C@@H]1Cc2[nH]c(-c3ccnc(-c4ccc(N5CCC(CN6CCC(c7cccc8c7n(C)c(=O)n8C7CCC(=O)NC7=O)CC6)CC5)cc4)c3)cc2C(=O)N1` (some centres unmarked) [Compound I-248], the maximal degradation (Dmax) on MK2 [1] and on MK2 [2] was above 75% throughout. The DC50 on MK2 [1] and at MK2 [2] (THP-1 cells) was 1 to 10 nM in each case.
Consider `Cc1cc(N2CCN(CCCc3ccc4c(c3)n(C)c(=O)n4C3CCC(=O)NC3=O)CC2)ncc1-c1ccc2c(ccc3sc4c(c32)NC[C@@H](C)NC4=O)n1` (some centres unmarked) [Compound I-249], for which the greatest degradation seen (Dmax) on MK2 [1] and at MK2 [2] was 50 to 75% each time. For the same molecule, the half-maximal degradation concentration (DC50) is below 1 nM at MK2 [1] and 1 to 10 nM on MK2 [2] (THP-1 cells).
With `Cc1cc(N2CCN(CC3CN(c4ccc5c(c4)n(C)c(=O)n5C4CCC(=O)NC4=O)C3)CC2)ncc1-c1ccc2c(ccc3sc4c(c32)NC[C@@H](C)NC4=O)n1` (some centres unmarked) [Compound I-250], the values for the Dmax on MK2 [1] and at MK2 [2] were above 75% and 50 to 75%, respectively. For the same molecule, the 50% degradation concentration (DC50) on MK2 [1] and on MK2 [2] (THP-1 cells) was below 1 nM throughout.
Turning to `C[C@@H]1CNc2c(sc3ccc4nc(-c5ccc(N6CCN(CCCc7ccc8c(c7)n(C)c(=O)n8C7CCC(=O)NC7=O)CC6)cc5Cl)ccc4c23)C(=O)N1` (some centres unmarked) [Compound I-251], on MK2 [1], the Dmax was 50 to 75% and the DC50 was below 1 nM. Also, the Dmax on MK2 [2] is below 50%. In addition, at MK2 [2] (THP-1 cells), the “MK2 MSD THP-1 degradation 24 h GMean External Abs DC50” value is on record as “—”.
Take `C[C@@H]1CNc2c(sc3ccc4nc(-c5ccc(N6CCN(CCCc7ccc8c(c7)n(C)c(=O)n8C7CCC(=O)NC7=O)CC6)cc5F)ccc4c23)C(=O)N1` (some centres unmarked) [Compound I-252]: the greatest degradation seen (Dmax) at MK2 [1] and at MK2 [2] was above 75% throughout. Besides, the 50% degradation concentration (DC50) at MK2 [1] and at MK2 [2] (THP-1 cells) was below 1 nM each time.
In the case of `C[C@@H]1CN(C)c2c(sc3ccc4nc(-c5ccc(N6CCC(CN7CCN(c8ccc9c(c8)n(C)c(=O)n9C8CCC(=O)NC8=O)CC7)CC6)cc5)ccc4c23)C(=O)N1` (some centres unmarked) [Compound I-253], the maximal degradation (Dmax) on MK2 [1] and on MK2 [2] was above 75% throughout. For the same molecule, the half-maximal degradation concentration (DC50) at MK2 [1] and on MK2 [2] (THP-1 cells) was 1 to 10 nM each time.
As to `C[C@@H]1CNc2c(sc3ccc4nc(-c5ccc(N6CCN(CC7CN(c8ccc9c(c8)n(C)c(=O)n9C8CCC(=O)NC8=O)C7)CC6)nc5)ccc4c23)C(=O)N1` (some centres unmarked) [Compound I-254], the Dmax on MK2 [1] and on MK2 [2] was above 75% throughout. For the same molecule, the DC50 at MK2 [1] and at MK2 [2] (THP-1 cells) was below 1 nM each time.
For `COc1ccc2c(c1N1CCC(CN3CCN(c4ccc(-c5ccc6c(ccc7sc8c(c76)NC[C@@H](C)NC8=O)n5)cn4)CC3)CC1)n(C)c(=O)n2C1CCC(=O)NC1=O` (some centres unmarked) [Compound I-255], the maximal degradation (Dmax) on MK2 [1] and at MK2 [2] was above 75% in each case. The DC50 on MK2 [1] and on MK2 [2] (THP-1 cells) was 1 to 10 nM in each case.
